Results: ChEMBL document CHEMBL5260859, “Discovery and structure-activity relationship study of 2-piperazinyl-benzothiazole derivatives as potent and selective PPARδ agonists” (Bioorg Med Chem, 2023)

Legend:
[1] = molecular target: T1, Peroxisome proliferator-activated receptor delta (Mus musculus) (UniProt P35396); assay: Agonist activity at Gal4-fused mouse PPAR-delta ligand binding domain expressed in CHO-K1 cells assessed as receptor transactivation incubated for 24 to 48 hrs by luciferase reporter gene assay relative to control; format: cell-based; conditions: time lower 24.0 hrs, time upper […]
T1 sequence (whole entry): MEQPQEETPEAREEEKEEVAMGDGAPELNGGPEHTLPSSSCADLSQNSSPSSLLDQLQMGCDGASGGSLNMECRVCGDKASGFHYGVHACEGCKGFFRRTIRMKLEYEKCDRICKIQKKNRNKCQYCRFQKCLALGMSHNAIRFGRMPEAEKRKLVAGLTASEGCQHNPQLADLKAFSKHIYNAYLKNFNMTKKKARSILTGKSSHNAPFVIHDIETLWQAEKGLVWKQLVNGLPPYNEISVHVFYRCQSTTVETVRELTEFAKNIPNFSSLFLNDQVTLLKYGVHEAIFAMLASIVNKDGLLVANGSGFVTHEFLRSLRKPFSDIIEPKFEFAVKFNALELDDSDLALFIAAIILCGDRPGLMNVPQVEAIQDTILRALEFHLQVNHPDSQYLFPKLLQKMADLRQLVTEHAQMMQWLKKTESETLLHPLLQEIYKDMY

[2] = Cmax in rat at 1 mg/kg, po; format: ADME, organism-based; set-up: dose 1 mg/kg, route po; conditions: in vivo
[3] = Oral bioavailability in rat at 1 mg/kg; format: ADME, organism-based; conditions: in vivo
[4] = molecular target: T2, Peroxisome proliferator-activated receptor gamma (Mus musculus, UniProt P37238); assay: Agonist activity at Gal4-fused mouse PPAR-gamma ligand binding domain expressed in CHO-K1 cells assessed as receptor transactivation incubated for 24 to 48 hrs by luciferase reporter gene assay; format: cell-based
T2 sequence (P37238 whole entry): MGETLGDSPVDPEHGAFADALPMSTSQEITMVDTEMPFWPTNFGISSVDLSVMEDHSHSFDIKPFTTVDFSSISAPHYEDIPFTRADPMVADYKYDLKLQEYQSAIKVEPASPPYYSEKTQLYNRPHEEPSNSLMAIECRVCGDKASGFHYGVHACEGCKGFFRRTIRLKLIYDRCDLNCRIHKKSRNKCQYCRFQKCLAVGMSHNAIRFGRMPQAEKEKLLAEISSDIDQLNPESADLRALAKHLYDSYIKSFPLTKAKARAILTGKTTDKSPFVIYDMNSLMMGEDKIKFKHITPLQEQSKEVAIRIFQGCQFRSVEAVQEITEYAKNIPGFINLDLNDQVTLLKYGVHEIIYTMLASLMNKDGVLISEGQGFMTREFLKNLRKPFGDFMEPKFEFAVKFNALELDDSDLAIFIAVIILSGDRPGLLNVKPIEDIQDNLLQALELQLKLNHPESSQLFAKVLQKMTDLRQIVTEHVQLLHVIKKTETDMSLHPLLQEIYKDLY

[5] = tested on: Mus musculus; assay: Antihypercholesterolemic activity against hApoB100/hCETP-dTg hypercholesterolemic mouse model assessed as serum total cholesterol level at 3 mg/kg, po administered once daily for 8 days; format: functional; conditions: time 8 day
[6] = tested on: Mus musculus; assay: Antihypercholesterolemic activity against hApoB100/hCETP-dTg hypercholesterolemic mouse model assessed as serum HDL-C level at 3 mg/kg, po administered once daily for 8 days; format: functional; conditions: time 8 day
[7] = AUC in rat at 0.5 mg/kg, iv; format: ADME, organism-based; set-up: dose 0.5 mg/kg, route iv; conditions: in vivo
[8] = Half life in rat at 0.5 mg/kg, iv; format: ADME, organism-based; conditions: in vivo
[9] = molecular target: T3, Peroxisome proliferator-activated receptor alpha (Mus musculus) (UniProt P23204); assay: Agonist activity at Gal4-fused mouse PPAR-alpha ligand binding domain expressed in CHO-K1 cells assessed as receptor transactivation incubated for 24 to 48 hrs by luciferase reporter gene assay relative to control; format: cell-based; conditions: time lower 24.0 hrs, time upper […]
T3 sequence (whole entry): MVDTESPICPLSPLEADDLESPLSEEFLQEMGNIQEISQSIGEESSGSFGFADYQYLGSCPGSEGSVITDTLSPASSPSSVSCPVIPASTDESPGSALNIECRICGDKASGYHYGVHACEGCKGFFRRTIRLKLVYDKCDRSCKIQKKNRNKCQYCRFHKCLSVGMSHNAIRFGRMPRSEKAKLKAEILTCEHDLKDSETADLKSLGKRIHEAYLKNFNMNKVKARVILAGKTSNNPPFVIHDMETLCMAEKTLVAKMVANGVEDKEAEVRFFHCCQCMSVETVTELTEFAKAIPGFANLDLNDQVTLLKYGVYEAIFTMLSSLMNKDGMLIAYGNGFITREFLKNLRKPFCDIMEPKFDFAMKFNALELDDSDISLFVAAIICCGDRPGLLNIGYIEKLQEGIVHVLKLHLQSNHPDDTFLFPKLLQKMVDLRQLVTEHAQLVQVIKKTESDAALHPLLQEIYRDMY

[10] = molecular target: T4, Peroxisome proliferator-activated receptor alpha (Mus musculus, UniProt P23204); assay: Agonist activity at Gal4-fused mouse PPAR-alpha ligand binding domain expressed in CHO-K1 cells assessed as receptor transactivation incubated for 24 to 48 hrs by luciferase reporter gene assay; format: cell-based
T4 sequence (P23204 whole entry): T3 sequence (whole entry)

[11] = AUC in rat at 1 mg/kg, po; format: ADME, organism-based; set-up: dose 1 mg/kg, route po; conditions: in vivo
[12] = molecular target: T5, Peroxisome proliferator-activated receptor delta (Mus musculus, UniProt P35396); assay: Agonist activity at Gal4-fused mouse PPAR-delta ligand binding domain expressed in CHO-K1 cells assessed as receptor transactivation incubated for 24 to 48 hrs by luciferase reporter gene assay; format: cell-based
T5 sequence (P35396 whole entry): T1 sequence (whole entry)

[13] = Clearance in rat at 0.5 mg/kg, iv; format: ADME, organism-based; conditions: in vivo
[14] = tested on: Mus musculus; assay: Antihypercholesterolemic activity against hApoB100/hCETP-dTg hypercholesterolemic mouse model assessed as serum non-HDL-C level at 3 mg/kg, po administered once daily for 8 days; format: functional; conditions: time 8 day
[15] = molecular target: T6, Peroxisome proliferator-activated receptor delta (Homo sapiens, UniProt Q03181); assay: Agonist activity at Gal4-fused human PPAR-delta ligand binding domain expressed in CHO-K1 cells assessed as receptor transactivation incubated for 24 to 48 hrs by luciferase reporter gene assay; format: cell-based
T6 sequence (Q03181 whole entry): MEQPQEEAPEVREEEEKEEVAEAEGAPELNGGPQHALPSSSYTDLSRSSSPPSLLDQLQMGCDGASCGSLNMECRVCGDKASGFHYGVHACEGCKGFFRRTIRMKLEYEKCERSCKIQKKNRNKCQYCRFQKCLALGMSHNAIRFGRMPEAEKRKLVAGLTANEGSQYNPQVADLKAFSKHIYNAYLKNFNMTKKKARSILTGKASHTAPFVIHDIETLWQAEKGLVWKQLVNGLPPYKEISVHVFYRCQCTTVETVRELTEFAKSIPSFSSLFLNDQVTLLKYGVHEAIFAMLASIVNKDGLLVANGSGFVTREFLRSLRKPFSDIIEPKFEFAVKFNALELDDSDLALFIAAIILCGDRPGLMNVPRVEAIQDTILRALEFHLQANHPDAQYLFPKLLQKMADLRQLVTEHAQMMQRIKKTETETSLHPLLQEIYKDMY

[16] = molecular target: T7, Peroxisome proliferator-activated receptor delta (Homo sapiens) (UniProt Q03181); assay: Agonist activity at Gal4-fused human PPAR-delta ligand binding domain expressed in CHO-K1 cells assessed as receptor transactivation incubated for 24 to 48 hrs by luciferase reporter gene assay relative to control; format: cell-based; conditions: time lower 24.0 hrs, time upper […]
T7 sequence (whole entry): T6 sequence (Q03181 whole entry)

[17] = molecular target: T8, Peroxisome proliferator-activated receptor alpha (Homo sapiens) (UniProt Q07869); assay: Agonist activity at Gal4-fused human PPAR-alpha ligand binding domain expressed in CHO-K1 cells assessed as receptor transactivation incubated for 24 to 48 hrs by luciferase reporter gene assay relative to control; format: cell-based; conditions: time lower 24.0 hrs, time upper […]
T8 sequence (whole entry): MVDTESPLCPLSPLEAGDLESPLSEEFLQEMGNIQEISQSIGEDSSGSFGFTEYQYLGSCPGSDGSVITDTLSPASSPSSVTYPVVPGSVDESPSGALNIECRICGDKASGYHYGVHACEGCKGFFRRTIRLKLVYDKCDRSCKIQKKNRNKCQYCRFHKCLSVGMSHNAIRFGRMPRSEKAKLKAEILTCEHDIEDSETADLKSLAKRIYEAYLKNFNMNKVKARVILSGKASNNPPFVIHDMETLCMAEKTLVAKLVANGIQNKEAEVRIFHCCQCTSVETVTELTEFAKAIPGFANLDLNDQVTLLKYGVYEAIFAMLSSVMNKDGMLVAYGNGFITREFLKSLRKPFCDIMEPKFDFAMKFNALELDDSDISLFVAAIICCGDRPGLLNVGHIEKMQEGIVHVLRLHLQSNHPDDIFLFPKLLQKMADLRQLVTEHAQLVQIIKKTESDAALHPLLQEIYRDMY

[18] = species: Mus musculus; assay: Selectivity ratio of EC50 for agonist activity at Gal4-fused mouse PPAR-gamma ligand binding domain expressed in CHO-K1 cells to EC50 for agonist activity at Gal4-fused mouse PPAR-delta ligand binding domain expressed in CHO-K1 cells; format: cell-based
[19] = species: Homo sapiens; assay: Selectivity ratio of EC50 for agonist activity at Gal4-fused human PPAR-alpha ligand binding domain expressed in CHO-K1 cells to EC50 for agonist activity at Gal4-fused human PPAR-delta ligand binding domain expressed in CHO-K1 cells; format: cell-based
[20] = species: Mus musculus; assay: Selectivity ratio of EC50 for agonist activity at Gal4-fused mouse PPAR-alpha ligand binding domain expressed in CHO-K1 cells to EC50 for agonist activity at Gal4-fused mouse PPAR-delta ligand binding domain expressed in CHO-K1 cells; format: cell-based

SMILES | Emax [1] [%] | Cmax [2] [ng/mL] | bioavailability [3] [%] | EC50 [4] [nM] | AUC [7] [ng·h/mL] | half-life [8] [h] | Emax [9] [%] | EC50 [10] [nM] | AUC [11] [ng·h/mL] | EC50 [12] [nM] | clearance [13] [mL/min/kg] | EC50 [15] [nM] | Emax [16] [%] | Emax [17] [%] | Activity [5] [%] | Activity [6] [%] | Activity [14] [%] | Ratio EC50 [18] | Ratio EC50 [19] | Ratio EC50 [20]
CC[C@H]1CN(c2nc3ccc(C(F)(F)F)cc3s2)CCN1CCOc1cc(CC(=O)O)ccc1Cl | 31.7 | 10 | 18.9 | 240 | 399 | 2.7 | 8 | 2500 | 151 | 6.1 | 21.5 |  |  |  | 94 | 156 | 82 |  |  | 
Cc1ccc(CC(=O)O)cc1OCCC1CCN(c2nc3ccc(Cl)cc3s2)CC1 | 20 |  |  |  |  |  | 15.5 | 1130 |  |  |  |  | 16.2 | 8 |  |  |  | 10 | 39 | 16

Further lines, with some results ahead:

Emax [1] [%] | Cmax [2] [ng/mL] | bioavailability [3] [%] | EC50 [4] [nM] | AUC [7] [ng·h/mL] | half-life [8] [h] | Emax [9] [%] | EC50 [10] [nM] | AUC [11] [ng·h/mL] | EC50 [12] [nM] | clearance [13] [mL/min/kg] | EC50 [15] [nM] | Emax [16] [%] | Emax [17] [%] | SMILES | Activity [5] [%] | Activity [6] [%] | Activity [14] [%] | Ratio EC50 [18] | Ratio EC50 [19] | Ratio EC50 [20]
34 | 11 | 26.4 | 240 | 190 | 1.4 | 7.2 | 2700 | 101 | 6.9 | 45.6 |  |  |  | C[C@H]1CN(c2nc3ccc(C(F)(F)F)cc3s2)CCN1CCOc1cc(CC(=O)O)ccc1Cl | 76 | 113 | 80 |  |  | 
25 | 2050 | 85.8 |  | 26700 | 9.5 | 10.3 | 2000 | 45900 | 12 | 0.31 | 4.1 | 18.6 |  | Cc1cc(CC(=O)O)cc(CN2CCN(c3nc4ccc(C(F)(F)F)cc4s3)[C@@H](C(C)C)C2)c1 | 72 | 188 | 56 |  |  | 
24.8 | 895 | 62.9 |  | 5680 | 6.7 | 1.4 |  | 7140 | 6.9 | 1.47 | 4.3 | 17.5 | 1.6 | Cc1cc(CC(=O)O)cc(CN2CCN(c3nc4ccc(C(F)(F)F)cc4s3)[C@H](CC(C)C)C2)c1 | 83 | 145 | 75 |  |  | 
